Where two headings read alike, the source gives them in different places. Bounds are passed on as bounds.

Among the data in patent US7879881B2, “Piperidinyl compounds that selectively bind integrins” (Janssen Pharmaceutica NV, priority 2002, dated 2011) are IC50 values, retold here.

The target in test [1] is GP IIb/IIIa (Homo sapiens, UniProt P05106+P08514). The test can be described thus: In Vitro Solid Phase Purified GP IIb/IIIa Binding Assay (biotinylated fibrinogen). To be noted: biotinylated fibrinogen binding to immobilized purified GP IIb/IIIa, mean ± spread. How it is done:
In Vitro Solid Phase Purified GP IIb/IIIa Binding Assay
The plate was covered and incubated overnight at 4° C. The GP IIb/IIIa solution was discarded and 150 μL of 5% BSA was added and incubated at RT for 1-3 h. The plate was washed extensively with modified Tyrodes buffer. Biotinylated fibrinogen (25 μL/well) at 2× final concentration was added to the wells that contain the test compounds (25 μL/well). The plate was covered and incubated at RT for 2-4 h. Twenty minutes prior to incubation completion, one drop of Reagent A (VectaStain ABC Horseradish Peroxidase kit, Vector Laboratories, Inc.) and one drop Reagent B were added with mixing to 5 mL modified Tyrodes buffer mix and let stand. The ligand solution was discarded and the plate washed (5×200 μL/well) with modified Tyrodes buffer. […] The Vecta Stain solution was discarded and the wells washed (5×200 μL/well) with modified Tyrodes buffer. Developing buffer (10 mL of 50 mM citrate/phosphate buffer @ pH 5.3, 6 mg o-phenylenediamine, 6 μL 30% H2O2; 50 μL/well) was added and incubated at RT for 3-5 min and then 2 N H2SO4 (50 μL/well) was added.

The target of test [2] is T1, Human αvβ3 (Homo sapiens, UniProt P05106+P06756).
T1 construct: purchased Chemicon International Inc., Temecula, Calif
T1 sequence (P06756 31-889 limits assumed): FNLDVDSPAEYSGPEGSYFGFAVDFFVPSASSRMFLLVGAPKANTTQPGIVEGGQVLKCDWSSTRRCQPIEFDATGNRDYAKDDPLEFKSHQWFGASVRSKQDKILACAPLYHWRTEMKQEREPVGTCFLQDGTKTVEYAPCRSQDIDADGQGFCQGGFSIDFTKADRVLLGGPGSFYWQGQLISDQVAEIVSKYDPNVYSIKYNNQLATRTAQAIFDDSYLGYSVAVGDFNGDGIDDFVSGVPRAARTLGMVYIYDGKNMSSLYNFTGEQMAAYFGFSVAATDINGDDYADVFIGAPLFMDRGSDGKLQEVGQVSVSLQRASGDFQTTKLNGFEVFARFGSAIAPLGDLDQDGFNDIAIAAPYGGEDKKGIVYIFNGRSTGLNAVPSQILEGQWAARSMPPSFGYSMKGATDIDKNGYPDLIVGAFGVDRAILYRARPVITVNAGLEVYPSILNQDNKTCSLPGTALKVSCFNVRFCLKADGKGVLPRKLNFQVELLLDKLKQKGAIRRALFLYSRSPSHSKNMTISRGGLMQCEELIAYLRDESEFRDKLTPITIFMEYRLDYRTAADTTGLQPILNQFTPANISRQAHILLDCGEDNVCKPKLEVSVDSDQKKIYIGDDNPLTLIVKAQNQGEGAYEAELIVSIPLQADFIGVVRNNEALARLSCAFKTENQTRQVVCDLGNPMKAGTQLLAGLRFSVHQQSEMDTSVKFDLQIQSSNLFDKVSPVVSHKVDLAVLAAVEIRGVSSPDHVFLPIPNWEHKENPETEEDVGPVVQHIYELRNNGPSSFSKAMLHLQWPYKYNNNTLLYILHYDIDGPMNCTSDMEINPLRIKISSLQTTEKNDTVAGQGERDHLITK
T1 sequence (P06756 891-1048 partner limits assumed): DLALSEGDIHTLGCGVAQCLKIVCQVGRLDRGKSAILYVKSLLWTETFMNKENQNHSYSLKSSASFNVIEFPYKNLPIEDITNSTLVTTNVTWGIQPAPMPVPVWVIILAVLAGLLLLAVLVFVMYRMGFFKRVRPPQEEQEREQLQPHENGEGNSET
T1 sequence (P05106 27-788): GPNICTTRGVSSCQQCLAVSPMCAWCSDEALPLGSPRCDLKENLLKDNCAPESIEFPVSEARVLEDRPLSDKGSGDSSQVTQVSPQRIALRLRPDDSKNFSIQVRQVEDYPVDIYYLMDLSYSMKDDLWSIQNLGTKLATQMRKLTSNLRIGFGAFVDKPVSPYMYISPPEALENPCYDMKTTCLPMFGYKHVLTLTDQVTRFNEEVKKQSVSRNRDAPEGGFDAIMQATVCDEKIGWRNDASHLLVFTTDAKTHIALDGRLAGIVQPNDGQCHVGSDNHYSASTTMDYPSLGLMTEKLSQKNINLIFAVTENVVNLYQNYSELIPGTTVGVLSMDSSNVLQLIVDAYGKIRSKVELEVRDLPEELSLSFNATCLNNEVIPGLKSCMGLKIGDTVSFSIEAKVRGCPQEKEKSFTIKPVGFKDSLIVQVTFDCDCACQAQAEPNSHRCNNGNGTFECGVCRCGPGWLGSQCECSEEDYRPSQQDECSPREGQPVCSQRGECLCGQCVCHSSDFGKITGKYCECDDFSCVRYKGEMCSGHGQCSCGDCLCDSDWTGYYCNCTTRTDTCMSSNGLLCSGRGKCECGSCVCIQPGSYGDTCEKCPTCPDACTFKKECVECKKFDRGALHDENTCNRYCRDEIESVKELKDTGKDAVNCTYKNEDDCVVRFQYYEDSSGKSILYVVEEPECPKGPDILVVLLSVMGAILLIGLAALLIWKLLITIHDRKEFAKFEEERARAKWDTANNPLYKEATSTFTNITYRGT
The test can be described thus: In Vitro Solid Phase Purified αvβ3 Binding Assay (vitronectin/αvβ3). To be noted: vitronectin binding to immobilized purified human αvβ3, mean ± spread. How it is done: In Vitro Solid Phase Purified αvβ3 Binding Assay
(§1) Human αvβ3 (Chemicon International Inc., Temecula, Calif.), at a concentration of 1 μg/ml dissolved in Tris buffer (20 mM Tris, 1 mM CaCl2, 1 mM MgCl2, 10 μM MnCl2, 150 mM NaCl), was immobilized on Immulon 96 well plates (Dynex Technologies, Chantilly, Va.) overnight at 4° C. Plates were washed and treated with blocking buffer (3% BSA in Tris buffer) for 2 h at 37° C. Plates were then rinsed 2 times with assay buffer comprised of Tris buffer. Synthesized compounds were added to wells in duplicate immediately prior to the addition of 2 nM vitronectin (Sigma, St. Louis, Mo.). Following a 3 hour incubation at 37° C., plates were washed 5 times in assay buffer. An anti-human vitronectin IgG rabbit polyclonal antibody (Calbiochem, San Diego, Calif.) was added (1:2000) and plates were incubated for 1 hour at room temperature. VectaStain ABC peroxidase kit reagents (Vector Laboratories, Burlingame, Calif.) employing a biotin labeled anti-rabbit IgG, were utilized for detection of bound antibody. Plates were read at 490 nm on a Molecular Devices (Sunnyvale, Calif.) microplate reader.

Test [3] concerns the target T2, human purified αVβ5 (Homo sapiens, UniProt P06756+P18084).
T2 construct: purchased Chemicon International, Inc
In words: In Vitro Solid Phase Purified αcβ5 Binding Assay (vitronectin/αVβ5). Conditions: vitronectin binding to immobilized purified human αVβ5, mean ± spread. How it is done: as §1
In Vitro Solid Phase Purified αcβ5 Binding Assay
All other aspects of the assay including buffers, reagents and incubation times remain unchanged.

T2 sequence (P06756 31-889 limits assumed): as the sequence (P06756 31-889 limits assumed) above
T2 sequence (P06756 891-1048 partner limits assumed): as the sequence (P06756 891-1048 partner limits assumed) above
T2 sequence (P18084 24-799): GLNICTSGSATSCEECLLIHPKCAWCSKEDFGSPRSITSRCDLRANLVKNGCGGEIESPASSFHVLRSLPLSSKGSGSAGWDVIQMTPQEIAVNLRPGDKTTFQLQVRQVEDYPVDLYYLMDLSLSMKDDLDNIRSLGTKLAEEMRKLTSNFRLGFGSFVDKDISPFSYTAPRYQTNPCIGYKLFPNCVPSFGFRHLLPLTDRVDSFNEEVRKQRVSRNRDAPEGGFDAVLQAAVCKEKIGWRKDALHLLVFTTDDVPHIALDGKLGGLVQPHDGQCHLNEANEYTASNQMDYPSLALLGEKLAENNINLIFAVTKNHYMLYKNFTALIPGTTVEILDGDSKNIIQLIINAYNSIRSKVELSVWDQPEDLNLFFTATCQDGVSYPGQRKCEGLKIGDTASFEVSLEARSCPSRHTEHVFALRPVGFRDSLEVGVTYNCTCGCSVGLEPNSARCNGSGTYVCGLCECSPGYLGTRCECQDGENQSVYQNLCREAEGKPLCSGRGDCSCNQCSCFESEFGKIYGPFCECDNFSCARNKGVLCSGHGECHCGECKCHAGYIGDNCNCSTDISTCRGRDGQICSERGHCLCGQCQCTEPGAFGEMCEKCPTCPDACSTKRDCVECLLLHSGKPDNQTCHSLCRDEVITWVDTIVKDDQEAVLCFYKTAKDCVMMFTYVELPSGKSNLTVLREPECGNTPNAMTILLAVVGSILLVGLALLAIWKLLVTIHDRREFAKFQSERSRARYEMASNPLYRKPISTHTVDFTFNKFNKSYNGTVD
Sequence of GP IIb/IIIa (P08514 32-887 limits assumed): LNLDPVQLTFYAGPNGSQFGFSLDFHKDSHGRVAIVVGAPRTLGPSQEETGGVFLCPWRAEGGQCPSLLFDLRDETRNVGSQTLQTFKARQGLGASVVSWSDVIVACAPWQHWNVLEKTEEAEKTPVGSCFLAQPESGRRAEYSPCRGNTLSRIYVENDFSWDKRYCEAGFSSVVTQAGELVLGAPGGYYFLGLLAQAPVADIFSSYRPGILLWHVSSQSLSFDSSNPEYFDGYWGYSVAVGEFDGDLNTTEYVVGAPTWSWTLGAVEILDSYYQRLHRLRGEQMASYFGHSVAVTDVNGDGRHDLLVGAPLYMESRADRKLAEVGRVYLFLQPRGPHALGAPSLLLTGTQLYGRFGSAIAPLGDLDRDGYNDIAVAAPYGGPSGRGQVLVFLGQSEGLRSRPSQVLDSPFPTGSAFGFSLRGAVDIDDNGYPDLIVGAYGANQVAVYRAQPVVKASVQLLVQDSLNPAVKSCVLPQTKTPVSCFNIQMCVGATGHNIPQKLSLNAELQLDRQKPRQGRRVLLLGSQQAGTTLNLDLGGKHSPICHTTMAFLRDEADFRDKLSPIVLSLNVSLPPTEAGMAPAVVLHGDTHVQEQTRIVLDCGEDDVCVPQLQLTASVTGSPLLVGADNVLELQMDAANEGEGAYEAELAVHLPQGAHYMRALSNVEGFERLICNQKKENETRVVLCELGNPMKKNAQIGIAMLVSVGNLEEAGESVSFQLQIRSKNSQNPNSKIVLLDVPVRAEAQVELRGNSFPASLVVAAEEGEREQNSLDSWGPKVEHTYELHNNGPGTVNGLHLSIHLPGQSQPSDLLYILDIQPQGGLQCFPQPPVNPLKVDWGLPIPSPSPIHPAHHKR
Sequence of GP IIb/IIIa (P08514 891-1039 partner limits assumed): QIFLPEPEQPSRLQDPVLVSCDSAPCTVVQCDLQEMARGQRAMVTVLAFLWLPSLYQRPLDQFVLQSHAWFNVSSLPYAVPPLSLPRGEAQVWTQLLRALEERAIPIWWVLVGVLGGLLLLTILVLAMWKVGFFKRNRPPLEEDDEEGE
Sequence of GP IIb/IIIa (P05106 27-788): as the sequence (P05106 27-788) above

Take `COc1ccc(C(CC(=O)O)CC2CCN(C(=O)CCc3ccc4c(n3)NCCC4)CC2)cn1` (stereo not drawn) [Cpd 28, 6-methoxy-β-[[1-[1-oxo-3-(5,6,7,8-tetrahydro-1,8-naphthyridin-2-yl)propyl]-4-piperidinyl]methyl]-3-pyridinepropanoic acid]: the IC50 in test [1] (αIIbβ3 IC50 (uM)) was found to be 6.1 ± 2.44 µM; in test [2] (αvβ3IC50 (uM)), 0.0007 ± 0.0002 µM; in test [3] (αvβ5 IC50 (uM)), 0.0027 ± 0.0008 µM.
Consider `CNc1cccc(C(CC(=O)O)CC2CCN(C(=O)CCc3ccc4c(n3)NCCC4)CC2)c1` (racemic) [Cpd 79, 3-(3-Methylamino-phenyl)-4-[1-(3-5,6,7,8-tetrahydro-[1,8]naphthyridin-2-yl-propionyl)-piperidin-4-yl]-butyric acid], for which the results for the IC50 in test [1] (read-out: αIIbβ3 IC50), in test [2] (read-out: αvβ3IC50) and in test [3] (read-out: αvβ5 IC50) were 40.2 µM, 0.0035 ± 0.0015 µM and 0.025 ± 0.006 µM, respectively.
For `O=C(O)CC(CC1CCN(C(=O)CCCc2ccc3c(n2)NCCC3)CC1)c1ccc(F)cc1` (stereo not drawn) [Cpd 34, β-(4-fluorophenyl)-1-[1-oxo-4-(5,6,7,8-tetrahydro-1,8-naphthyridin-2-yl)butyl]-4-piperidinebutanoic acid] the same measures were above 50 µM, 0.148 ± 0.1 µM and 1.04 ± 0.109 µM.
Regarding `O=C(O)CC(C1CCN(C(=O)CCCc2ccc3c(n2)NCCC3)CC1)C1CNc2ccccc2C1` (single isomer, unassigned) [Cpd 5-4, 1,2,3,4-Tetrahydro-β-[1-[1-oxo-4-(5,6,7,8-tetrahydro-1,8-naphthyridin-2-yl)butyl]-4-piperidinyl]-3-quinolinepropanoic acid], the IC50 was 9.82 µM in test [1] (read-out: αIIbβ3 IC50), 0.0054 ± 0.0002 µM in test [2] (αvβ3IC50 (uM)) and 0.162 ± 0.0627 µM in test [3] (αvβ5 IC50 (uM)).
Take `O=C(O)CC(CCC1CCN(C(=O)CCc2ccc3c(n2)NCCC3)CC1)c1cccnc1` (stereo not drawn) [Cpd 8, β-[2-[1-[1-Oxo-3-(5,6,7,8-tetrahydro-1,8-naphthyridin-2-yl)propyl]-4-piperidinyl]ethyl]-3-pyridinepropanoic acid]: the IC50 in test [1] (read-out: αIIbβ3 IC50) amounted to 1.36 ± 0.43 µM; in test [2] (read-out: αvβ3IC50), 0.0179 ± 0.0034 µM; in test [3] (read-out: αvβ5 IC50), 0.253 µM.
For `O=C(O)CC(CCC1CCN(C(=O)c2cccc(NC3=NCCCN3)c2)CC1)c1cnc2ccccc2c1` (stereo not drawn) [Cpd 12, β-[2-[1-[3-[(1,4,5,6-Tetrahydro-2-pyrimidinyl)amino]benzoyl]-4-piperidinyl]ethyl]-3-quinolinepropanoic acid] the same measures were 0.136 ± 0.003 µM, 0.0042 ± 0.0014 µM and 0.078 ± 0.017 µM.
For `O=C(O)CC(c1cnc2ccccc2c1)C1CCN(C(=O)Cc2cccc(NC3=NCC(O)CN3)c2)CC1` (stereo not drawn) [Cpd 3, β-[1-[[3-[(1,4,5,6-Tetrahydro-5-hydroxy-2-pyrimidinyl)amino]phenyl]acetyl]-4-piperidinyl]-3-quinolinepropanoic acid] the same measures were 0.21 µM, 0.0036 ± 0.0004 µM and 2.5 µM.
For `O=C(O)CC(CCC1CCN(C(=O)Cc2ccc3c(n2)NCCC3)CC1)c1ccc2c(c1)OCO2` (stereo not drawn) [Cpd 55, β-(1,3-benzodioxol-5-yl)-1-[(5,6,7,8-tetrahydro-1,8-naphthyridin-2-yl)acetyl]-4-piperidinepentanoic acid] the same measures were 15.6 µM, 0.095 µM and 0.737 µM.
On to `O=C(O)CC(CC1CCN(C(=O)CCc2ccc3c(n2)NCCC3)CC1)c1ccc(F)cc1` (stereo not drawn) [Cpd 33, β-(4-fluorophenyl)-1-[1-oxo-3-(5,6,7,8-tetrahydro-1,8-naphthyridin-2-yl)propyl]-4-piperidinebutanoic acid], for which the IC50 in test [1] (read-out: αIIbβ3 IC50) was above 50 µM; in test [2] (read-out: αvβ3IC50), 0.0013 ± 0.0004 µM; in test [3] (read-out: αvβ5 IC50), 0.0226 ± 0.0052 µM.
For `O=C(O)CC(CCC1CCN(C(=O)c2cccc(NC3=NCCCN3)c2)CC1)c1cccnc1` (stereo not drawn) [Cpd 6, β-[2-[1-[3-[(1,4,5,6-Tetrahydro-2-pyrimidinyl)amino]benzoyl]-4-piperidinyl]ethyl]-3-pyridinepropanoic acid] the same measures were 1.62 ± 0.05 µM, 0.0076 ± 0.0021 µM and 0.54 µM.
For `O=C(O)CC(CC1CCN(C(=O)CCc2ccc3c(n2)NCCC3)CC1)C1CNc2ccccc2C1` (single isomer, unassigned) [Cpd 19-1, 1,2,3,4-tetrahydro-β-[[1-[1-oxo-3-(5,6,7,8-tetrahydro-1,8-naphthyridin-2-yl)propyl]-4-piperidinyl]methyl]-3-quinolinepropanoic acid] the same measures were above 50 µM, 0.0367 µM and 1.12 µM.
Consider `COC(=O)CCCC1CCN(C(=O)CCc2ccc3c(n2)NCCC3)CC1` [Cpd 73, 4-[1-(3-5,6,7,8-Tetrahydro-[1,8]naphthyridin-2-yl-propionyl)-piperidin-4-yl]-butyric acid methyl ester], for which the IC50 in test [1] (read-out: αIIbβ3 IC50) is above 50 µM; in test [2] (read-out: αvβ3IC50), above 0.5 µM; in test [3] (read-out: αvβ5 IC50), above 1 µM.
For `COc1ccc(C(CCC2CCN(C(=O)CCc3ccc4c(n3)NCCC4)CC2)CC(=O)O)cn1` (single isomer, unassigned) [Cpd 21a, 6-methoxy-β-[2-[1-[1-oxo-3-(5,6,7,8-tetrahydro-1,8-naphthyridin-2-yl)propyl]-4-piperidinyl]ethyl]-3-pyridinepropanoic acid] the same measures were 5.31 µM, 0.0213 ± 0.0019 µM and 0.841 ± 0.405 µM.
For `O=C(O)CC(CC1CCN(C(=O)CCc2ccc3c(n2)NCCC3)CC1)c1cc(F)cc(F)c1` (stereo not drawn) [Cpd 37, β-(3,5-difluorophenyl)-1-[1-oxo-3-(5,6,7,8-tetrahydro-1,8-naphthyridin-2-yl)propyl]-4-piperidinebutanoic acid] the same measures were above 50 µM, 0.0158 ± 0.0043 µM and 0.0897 ± 0.0116 µM.
For `CC(C)(C)C(=O)OCOC(=O)CCCC1CCN(C(=O)CCc2ccc3c(n2)NCCC3)CC1` [Cpd 74, 4-[1-(3-5,6,7,8-Tetrahydro-[1,8]naphthyridin-2-yl-propionyl)-piperidin-4-yl]-butyric acid 2,2-dimethyl-propionyloxymethyl ester] the same measures were above 50 µM, 0.193 µM and above 1 µM.
For `O=C(O)CC(CC1CCN(C(=O)c2cccc(NC3=NCC(O)CN3)c2)CC1)c1ccc2c(c1)OCO2` (stereo not drawn) [Cpd 27, β-(1,3-benzodioxol-5-yl)-1-[3-[(1,4,5,6-tetrahydro-5-hydroxy-2-pyrimidinyl)amino]benzoyl]-4-piperidinebutanoic acid], the IC50 was determined as 1.62 ± 0.56 µM in test [1] (read-out: αIIbβ3 IC50), 0.048 µM in test [2] (read-out: αvβ3IC50) and 0.81 µM in test [3] (read-out: αvβ5 IC50).
For `O=C(O)CC(CC1CCN(C(=O)CCc2ccc3c(n2)NCCC3)CC1)c1ccc2c(c1)OCCO2` (racemic) [Cpd 65] the same measures were 3.84 µM, 0.0008 µM and 0.0346 ± 0.0002 µM.
`O=C(O)CC(CC1CCN(C(=O)CCc2ccc3c(n2)NCCC3)CC1)c1cccs1` (racemic) [Cpd 63]: the IC50 was found to be 10.2 ± 6.41 µM in test [1] (read-out: αIIbβ3 IC50), 0.0018 ± 0.0008 µM in test [2] (read-out: αvβ3IC50) and 0.007 ± 0.0008 µM in test [3] (read-out: αvβ5 IC50).
For `O=C(O)CC(CC1CCN(C(=O)CCc2ccc3c(n2)NCCC3)CC1)c1cncc2ccccc12` (stereo not drawn) [Cpd 44, β-[[1-[1-oxo-3-(5,6,7,8-tetrahydro-1,8-naphthyridin-2-yl)propyl]-4-piperidinyl]methyl]-4-isoquinolinepropanoic acid] the same measures were 5.44 ± 1.1 µM, 0.0022 ± 0.0009 µM and 0.002 ± 0.0006 µM.
For `O=C(O)CC(CCC1CCN(C(=O)CCc2ccc3c(n2)NCCC3)CC1)c1ccc2c(c1)OCO2` (stereo not drawn) [Cpd 20, β-(1,3-benzodioxol-5-yl)-1-[1-oxo-3-(5,6,7,8-tetrahydro-1,8-naphthyridin-2-yl)propyl]-4-piperidinepentanoic acid] the same measures were 1.8 µM, 0.142 ± 0.027 µM and 0.995 µM.
For `O=C(O)CC(CC1CCN(C(=O)CCc2ccc3c(n2)NCCC3)CC1)c1cccc(F)c1` (stereo not drawn) [Cpd 30, β-(3-fluorophenyl)-1-[1-oxo-3-(5,6,7,8-tetrahydro-1,8-naphthyridin-2-yl)propyl]-4-piperidinebutanoic acid] the same measures were 14.4 ± 5.98 µM, 0.001 ± 0.0002 µM and 0.0028 ± 0.0001 µM.
